# Measurements reported in PubChem BioAssay AID2060501 (Molecular Pharmacology Branch, DTP, NCI, 2025).
# System: 282377-053-R-J1-PDC complex spheroids, viability
# Assay: Anticancer human tumor 282377-053-R-J1-PDC patient-derived colon adenocarcinoma cell line growth inhibition [GQUAD]
# Settings: for IC50: curve of first compound; for viability, T/C: stronger effect = lower value
# How it was run: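 Viability of tumor cells grown as complex spheroids with endothelial and stromal cells, exposed to drug combinations. Top concentration at or near clinical Cmax (else 10 microM), diluted in half-log increments.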
# [1] = second compound 0.0316 µM, first compound 0.0316 µM
# [2] = second compound 0.0316 µM, first compound 0.1 µM
# [3] = second compound 0.0316 µM, first compound 0.316 µM
# [4] = second compound 0.0316 µM, first compound 1 µM
# [5] = second compound 0.0316 µM, first compound 3.16 µM
# [6] = second compound 0.0316 µM, first compound 10 µM
# [7] = second compound 0.1 µM, first compound 0.0316 µM
# [8] = second compound 0.1 µM, first compound 0.1 µM
# [9] = second compound 0.1 µM, first compound 0.316 µM
# [10] = second compound 0.1 µM, first compound 1 µM
# [11] = second compound 0.1 µM, first compound 3.16 µM
# [12] = second compound 0.1 µM, first compound 10 µM
# [13] = second compound 0.316 µM, first compound 0.0316 µM
# [14] = second compound 0.316 µM, first compound 0.1 µM
# [15] = second compound 0.316 µM, first compound 0.316 µM
# [16] = second compound 0.316 µM, first compound 1 µM
# [17] = second compound 0.316 µM, first compound 3.16 µM
# [18] = second compound 0.316 µM, first compound 10 µM
# [19] = second compound 1 µM, first compound 0.0316 µM
# [20] = second compound 1 µM, first compound 0.1 µM
# [21] = second compound 1 µM, first compound 0.316 µM
# [22] = second compound 1 µM, first compound 1 µM
# [23] = second compound 1 µM, first compound 3.16 µM
# [24] = second compound 1 µM, first compound 10 µM
# [25] = second compound 3.16 µM, first compound 0.0316 µM
# [26] = second compound 3.16 µM, first compound 0.1 µM
# [27] = second compound 3.16 µM, first compound 0.316 µM
# [28] = second compound 3.16 µM, first compound 1 µM
# [29] = second compound 3.16 µM, first compound 3.16 µM
# [30] = second compound 3.16 µM, first compound 10 µM
# [31] = second compound 10 µM, first compound 0.0316 µM
# [32] = second compound 10 µM, first compound 0.1 µM
# [33] = second compound 10 µM, first compound 0.316 µM
# [34] = second compound 10 µM, first compound 1 µM
# [35] = second compound 10 µM, first compound 3.16 µM
# [36] = second compound 10 µM, first compound 10 µM
# 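Also: spheroids exposed to compounds for 7 days before readout.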
# 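For viability, T/C in this document: percent of vehicle DMSO control viability with 100% = untreated-like growth.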
compound,measurement,setting,value
CC(C)n1c(=O)n(C)c2cnc3cc(F)c(-c4ccc(OCCCN5CCCCC5)nc4)cc3c21 + CN(C)c1ccc(Nc2c3ccc(NC(=O)CCN4CCCC4)cc3nc3cc(NC(=O)CCN4CCCC4)ccc23)cc1,IC50,second compound 0.0316 µM,> 10 µM
same,IC50,second compound 0.1 µM,> 10 µM
same,IC50,second compound 0.316 µM,> 10 µM
same,IC50,second compound 1 µM,> 10 µM
same,IC50,second compound 3.16 µM,> 10 µM
same,IC50,second compound 10 µM,> 10 µM
same,"viability, T/C",[1],97.9%
same,"viability, T/C",[2],108%
same,"viability, T/C",[3],102%
same,"viability, T/C",[4],106%
same,"viability, T/C",[5],104%
same,"viability, T/C",[6],101%
same,"viability, T/C",[7],92.5%
same,"viability, T/C",[8],101%
same,"viability, T/C",[9],89.5%
same,"viability, T/C",[10],108%
same,"viability, T/C",[11],89.4%
same,"viability, T/C",[12],90.9%
same,"viability, T/C",[13],100%
same,"viability, T/C",[14],107%
same,"viability, T/C",[15],108%
same,"viability, T/C",[16],103%
same,"viability, T/C",[17],88.3%
same,"viability, T/C",[18],101%
same,"viability, T/C",[19],106%
same,"viability, T/C",[20],96.8%
same,"viability, T/C",[21],99.7%
same,"viability, T/C",[22],94.4%
same,"viability, T/C",[23],105%
same,"viability, T/C",[24],91%
same,"viability, T/C",[25],113%
same,"viability, T/C",[26],108%
same,"viability, T/C",[27],102%
same,"viability, T/C",[28],114%
same,"viability, T/C",[29],110%
same,"viability, T/C",[30],108%
same,"viability, T/C",[31],106%
same,"viability, T/C",[32],102%
same,"viability, T/C",[33],110%
same,"viability, T/C",[34],99.7%
same,"viability, T/C",[35],97.7%
same,"viability, T/C",[36],57.7%
Cc1cccc(N(C)C(=O)C2C(O)CCN2c2nc(C)cc(C(F)(F)F)c2C#N)c1 (stereo not drawn) + CN(C)c1ccc(Nc2c3ccc(NC(=O)CCN4CCCC4)cc3nc3cc(NC(=O)CCN4CCCC4)ccc23)cc1,IC50,second compound 0.0316 µM,> 10 µM
same,IC50,second compound 0.1 µM,> 10 µM
same,IC50,second compound 0.316 µM,> 10 µM
same,IC50,second compound 1 µM,> 10 µM
same,IC50,second compound 3.16 µM,> 10 µM
same,IC50,second compound 10 µM,> 10 µM
same,"viability, T/C",[1],110%
same,"viability, T/C",[2],104%
same,"viability, T/C",[3],93.3%
same,"viability, T/C",[4],98.7%
same,"viability, T/C",[5],78.2%
same,"viability, T/C",[6],104%
same,"viability, T/C",[7],105%
same,"viability, T/C",[8],96.9%
same,"viability, T/C",[9],103%
same,"viability, T/C",[10],93.8%
same,"viability, T/C",[11],96.3%
same,"viability, T/C",[12],82.3%
same,"viability, T/C",[13],101%
same,"viability, T/C",[14],103%
same,"viability, T/C",[15],84.5%
same,"viability, T/C",[16],106%
same,"viability, T/C",[17],90.2%
same,"viability, T/C",[18],63.8%
same,"viability, T/C",[19],100%
same,"viability, T/C",[20],87.5%
same,"viability, T/C",[21],90.5%
same,"viability, T/C",[22],90.1%
same,"viability, T/C",[23],94.6%
same,"viability, T/C",[24],88.1%
same,"viability, T/C",[25],94.2%
same,"viability, T/C",[26],96.8%
same,"viability, T/C",[27],96.7%
same,"viability, T/C",[28],94.5%
same,"viability, T/C",[29],128%
same,"viability, T/C",[30],109%
same,"viability, T/C",[31],91.8%
same,"viability, T/C",[32],97%
same,"viability, T/C",[33],110%
same,"viability, T/C",[34],105%
same,"viability, T/C",[35],122%
same,"viability, T/C",[36],80%
Cn1ncnc1[C@H]1c2n[nH]c(=O)c3cc(F)cc(c23)N[C@@H]1c1ccc(F)cc1 + CN(C)c1ccc(Nc2c3ccc(NC(=O)CCN4CCCC4)cc3nc3cc(NC(=O)CCN4CCCC4)ccc23)cc1,IC50,second compound 0.0316 µM,> 0.316 µM
same,IC50,second compound 0.1 µM,> 0.316 µM
same,IC50,second compound 0.316 µM,> 0.316 µM
same,IC50,second compound 1 µM,> 0.316 µM
same,IC50,second compound 3.16 µM,> 0.316 µM
same,IC50,second compound 10 µM,> 0.316 µM
same,"viability, T/C","second compound 0.0316 µM, first compound 0.000999 µM",96.8%
same,"viability, T/C","second compound 0.0316 µM, first compound 0.00316 µM",92.6%
same,"viability, T/C","second compound 0.0316 µM, first compound 0.00999 µM",101%
same,"viability, T/C",[1],104%
same,"viability, T/C","second compound 0.0316 µM, first compound 0.0999 µM",112%
same,"viability, T/C",[3],110%
same,"viability, T/C","second compound 0.1 µM, first compound 0.000999 µM",127%
same,"viability, T/C","second compound 0.1 µM, first compound 0.00316 µM",82.7%
same,"viability, T/C","second compound 0.1 µM, first compound 0.00999 µM",88.7%
same,"viability, T/C",[7],105%
same,"viability, T/C","second compound 0.1 µM, first compound 0.0999 µM",101%
same,"viability, T/C",[9],98.8%
same,"viability, T/C","second compound 0.316 µM, first compound 0.000999 µM",109%
same,"viability, T/C","second compound 0.316 µM, first compound 0.00316 µM",77.7%
same,"viability, T/C","second compound 0.316 µM, first compound 0.00999 µM",78.9%
same,"viability, T/C",[13],89.3%
same,"viability, T/C","second compound 0.316 µM, first compound 0.0999 µM",94.3%
same,"viability, T/C",[15],83.3%
same,"viability, T/C","second compound 1 µM, first compound 0.000999 µM",109%
same,"viability, T/C","second compound 1 µM, first compound 0.00316 µM",108%
same,"viability, T/C","second compound 1 µM, first compound 0.00999 µM",100%
same,"viability, T/C",[19],94.9%
same,"viability, T/C","second compound 1 µM, first compound 0.0999 µM",107%
same,"viability, T/C",[21],89.1%
same,"viability, T/C","second compound 3.16 µM, first compound 0.000999 µM",85.5%
same,"viability, T/C","second compound 3.16 µM, first compound 0.00316 µM",81%
same,"viability, T/C","second compound 3.16 µM, first compound 0.00999 µM",101%
same,"viability, T/C",[25],90.8%
same,"viability, T/C","second compound 3.16 µM, first compound 0.0999 µM",92.8%
same,"viability, T/C",[27],102%
same,"viability, T/C","second compound 10 µM, first compound 0.000999 µM",81.4%
same,"viability, T/C","second compound 10 µM, first compound 0.00316 µM",84.8%
same,"viability, T/C","second compound 10 µM, first compound 0.00999 µM",91.6%
same,"viability, T/C",[31],106%
same,"viability, T/C","second compound 10 µM, first compound 0.0999 µM",101%
same,"viability, T/C",[33],101%
O=C(c1cc(Cc2n[nH]c(=O)c3ccccc23)ccc1F)N1CCN(C(=O)C2CC2)CC1 + CN(C)c1ccc(Nc2c3ccc(NC(=O)CCN4CCCC4)cc3nc3cc(NC(=O)CCN4CCCC4)ccc23)cc1,IC50,second compound 0.0316 µM,> 10 µM
same,IC50,second compound 0.1 µM,> 10 µM
same,IC50,second compound 0.316 µM,> 10 µM
same,IC50,second compound 1 µM,> 10 µM
same,IC50,second compound 3.16 µM,> 10 µM
same,IC50,second compound 10 µM,> 10 µM
same,"viability, T/C",[1],102%
same,"viability, T/C",[2],91.5%
same,"viability, T/C",[3],94.2%
same,"viability, T/C",[4],97.4%
same,"viability, T/C",[5],105%
same,"viability, T/C",[6],96.8%
same,"viability, T/C",[7],128%
same,"viability, T/C",[8],107%
same,"viability, T/C",[9],96.9%
same,"viability, T/C",[10],100%
same,"viability, T/C",[11],89.7%
same,"viability, T/C",[12],90.7%
same,"viability, T/C",[13],102%
same,"viability, T/C",[14],92.6%
same,"viability, T/C",[15],83.4%
same,"viability, T/C",[16],81.5%
same,"viability, T/C",[17],91.2%
same,"viability, T/C",[18],109%
same,"viability, T/C",[19],108%
same,"viability, T/C",[20],88%
same,"viability, T/C",[21],88.1%
same,"viability, T/C",[22],74.9%
same,"viability, T/C",[23],74.7%
same,"viability, T/C",[24],92.4%
same,"viability, T/C",[25],91.6%
same,"viability, T/C",[26],83.5%
same,"viability, T/C",[27],99.3%
same,"viability, T/C",[28],101%
same,"viability, T/C",[29],86.5%
same,"viability, T/C",[30],89.5%
same,"viability, T/C",[31],99%
same,"viability, T/C",[32],88.4%
same,"viability, T/C",[33],105%
same,"viability, T/C",[34],75.9%
same,"viability, T/C",[35],108%
same,"viability, T/C",[36],119%
